Test results reported in ChEMBL document CHEMBL3102853, “Carbonic anhydrase inhibitors. Synthesis, and molecular structure of novel series N-substituted N'-(2-arylmethylthio-4-chloro-5-methylbenzenesulfonyl)guanidines and their inhibition of human cytosolic isozymes I and II and the transmembrane tumor-associated isozymes IX and XII” (Eur J Med Chem, 2014).
Active and inactive are the calls of the source. The calls are words filed in the database; no cut-off is given here.

How the values were obtained:
Type in all cases: functional
Hs-578T = test: Cytotoxicity against human Hs 578T cells at 10 uM
MDA-MB-468 = test: Cytotoxicity against human MDA-MB-468 cells at 10 uM; conditions: read-out: GI
MCF7 = test: Cytotoxicity against human MCF7 cells at 10 uM; conditions: read-out: GI
T47D = test: Cytotoxicity against human T47D cells at 10 uM; conditions: read-out: GI
DU-145 = test: Cytotoxicity against human DU145 cells at 10 uM
PC-3 = test: Cytotoxicity against human PC3 cells at 10 uM; conditions: read-out: GI
A498 = test: Cytotoxicity against human A498 cells at 10 uM
NCI/ADR-RES = test: Cytotoxicity against human NCI-ADR-RES cells at 10 uM
LOX IMVI = test: Cytotoxicity against human LOXIMVI cells at 10 uM; conditions: read-out: GI
OVCAR-3 = test: Cytotoxicity against human OVCAR3 cells at 10 uM
UACC-62 = test: Cytotoxicity against human UACC62 cells at 10 uM
SK-MEL-2 = test: Cytotoxicity against human SK-MEL-2 cells at 10 uM
SF-268 = test: Cytotoxicity against human SF268 cells at 10 uM
SW-620 = test: Cytotoxicity against human SW620 cells at 10 uM
SNB-75 = test: Cytotoxicity against human SNB75 cells at 10 uM; conditions: read-out: GI
KM12 = test: Cytotoxicity against human KM12 cells at 10 uM
HT-29 = test: Cytotoxicity against human HT-29 cells at 10 uM
HOP-92 = test: Cytotoxicity against human HOP92 cells at 10 uM; conditions: read-out: GI
NCI-H460 = test: Cytotoxicity against human NCI-H460 cells at 10 uM
A549 = test: Cytotoxicity against human A549 cells at 10 uM
SR = test: Cytotoxicity against human SR cells at 10 uM
MOLT-4 = test: Cytotoxicity against human MOLT4 cells at 10 uM; conditions: read-out: GI
RPMI-8226 = test: Cytotoxicity against human RPMI8226 cells at 10 uM
K562 = test: Cytotoxicity against human K562 cells at 10 uM; conditions: read-out: GI
HL-60(TB) = test: Cytotoxicity against human HL-60(TB) cells at 10 uM; conditions: read-out: GI

Cc1cc(S(=O)(=O)NC(=N)Nc2nnc(S(N)(=O)=O)s2)c(SCc2ccccc2)cc1Cl
growth inhibition (GI) (Hs-578T): inactive | inhibition of growth at 10 µM (MDA-MB-468): 11% | inhibition of growth at 10 µM (MCF7): 11% | inhibition of growth at 10 µM (T47D): 6% | growth inhibition (GI) (DU-145): inactive | inhibition of growth at 10 µM (PC-3): 3% | growth inhibition (GI) (A498): inactive | growth inhibition (GI) (NCI/ADR-RES): inactive | inhibition of growth at 10 µM (LOX IMVI): 4% | growth inhibition (GI) (OVCAR-3): inactive | growth inhibition (GI) (UACC-62): inactive | growth inhibition (GI) (SK-MEL-2): inactive | growth inhibition (GI) (SF-268): inactive | growth inhibition (GI) (SW-620): inactive | inhibition of growth at 10 µM (SNB-75): 18% | growth inhibition (GI) (KM12): inactive | growth inhibition (GI) (HT-29): inactive | inhibition of growth at 10 µM (HOP-92): 1% | growth inhibition (GI) (NCI-H460): inactive | growth inhibition (GI) (A549): inactive | growth inhibition (GI) (SR): inactive | inhibition of growth at 10 µM (MOLT-4): 14% | growth inhibition (GI) (RPMI-8226): inactive | inhibition of growth at 10 µM (K562): 2% | inhibition of growth at 10 µM (HL-60(TB)): 15%
